One assay concerns the target T1, human SGLT2 (Homo sapiens, UniProt P31639).
T1 construct: expressed in transfected cells
T1 sequence (P31639 1-672): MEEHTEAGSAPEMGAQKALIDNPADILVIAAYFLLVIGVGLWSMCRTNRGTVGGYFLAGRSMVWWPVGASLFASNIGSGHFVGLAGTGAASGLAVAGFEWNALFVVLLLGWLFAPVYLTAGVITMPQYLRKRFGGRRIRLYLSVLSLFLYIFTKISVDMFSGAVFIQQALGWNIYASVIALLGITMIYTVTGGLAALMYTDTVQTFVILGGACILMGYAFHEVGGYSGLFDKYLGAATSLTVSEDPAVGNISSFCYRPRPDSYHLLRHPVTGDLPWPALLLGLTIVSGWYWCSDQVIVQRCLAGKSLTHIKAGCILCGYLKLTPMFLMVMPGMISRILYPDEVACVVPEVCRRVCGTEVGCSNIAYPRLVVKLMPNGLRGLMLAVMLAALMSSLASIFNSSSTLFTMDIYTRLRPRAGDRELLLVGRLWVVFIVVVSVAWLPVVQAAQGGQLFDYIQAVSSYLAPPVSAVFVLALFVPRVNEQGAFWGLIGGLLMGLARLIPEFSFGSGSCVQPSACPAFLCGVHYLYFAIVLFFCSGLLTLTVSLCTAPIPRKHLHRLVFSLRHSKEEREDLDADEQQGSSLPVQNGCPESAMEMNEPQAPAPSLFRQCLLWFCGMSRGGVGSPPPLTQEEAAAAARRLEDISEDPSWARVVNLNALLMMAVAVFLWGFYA
Nature of the assay: SGLT2 assay: Na-dependent 14C-AMG uptake in CHO-K1 cells stably expressing human SGLT2. It counts as cell-based. The settings on record: for SGLT2 %-inhibition / inhibition at 0.3 µM: @ 0.3 μM; for IC50: average if tested more than once. As for the experimental part:
(§1) The ability of the compounds of formula (I) of the present invention to treat an SGLT-mediated condition was determined using the following procedures:
(§2) SGLT1 and SGLT2 were cloned in form of cDNA from human small intestine (Genbank M24847), and from human kidney (Genbank M95549), respectively. Subsequently, each full cDNA was subcloned into pcDNA with each construct's integrity verified through follow-on sequencing. To generate CHO-K1 cells that stably express human SGLT1 or human SGLT2, CHO-K1 cells were transfected using DMRIE-C reagent (Life Technologies, Gaithersburg, Md.). Transfected cells were then selected in the presence of 500 μg/ml of the Geneticin (G418 Cellgro Catalog No. 30234-Cl)
(§3) Individual clones were then characterized using the following cell-based assay for sodium-dependent glucose transport:
(§4) Inhibition of SGLT1 and SGLT2 activity was assessed in CHO K1 cells stably expressing either human SGLT1 or SGLT2, using the SGLT specific glucose analog methyl-glucopyranoside (Sigma Catalog No. M-9376). Cells were plated (45,000 cells/well) in white wall 96-well plates (COSTAR, Cat #3903) for 24 hours in growth medium, then a final concentration of 10 mM Na-Butyrate (ALDRICH Cat #30341-0) was added. The cells were incubated for 24 hours. On the day of the assay, cells were rinsed and treated with test compounds (at concentrations of 0.001 μM to 10 μM) in assay buffer (50 mM HEPES, 20 mM Tris base, 5 mM KCl, 1 mM MgCl2, 1 mM CaCl2 and 137 mM NaCl, pH 7.4) for 10 minutes. Cells were then incubated with ^14C-a-methyl-d-glucopyranoside (AMG, Amersham Catalog No. CFB 76), using 0.07 μCi per well in 500 μM AMG final concentration. The cells were incubated for 2 hours at 37° C. with 5% CO2 and washed two times with ice-cold Phosphate Buffer Solution (Cellgro Catalog No. 21030-CV). The cells were then solubilized by adding 60 μl of MICROSCINT™20 and the Na-dependent ^14C-AMG uptake was quantified by measuring radioactivity. Plates were counted in a TopCount (Packard, Meriden, Conn.)
(§5) Representative compounds of the present invention were tested according to the procedures as described in Biological Example 1 and 2 above, with results as listed in Table 5, below. Results are reported as the %-inhibition or IC50 value. Variability for the functional assay was typically within 20%.

The target of a further assay is T2, human SGLT1 (Homo sapiens, UniProt P13866).
T2 construct: expressed in transfected cells
T2 sequence (P13866 1-664): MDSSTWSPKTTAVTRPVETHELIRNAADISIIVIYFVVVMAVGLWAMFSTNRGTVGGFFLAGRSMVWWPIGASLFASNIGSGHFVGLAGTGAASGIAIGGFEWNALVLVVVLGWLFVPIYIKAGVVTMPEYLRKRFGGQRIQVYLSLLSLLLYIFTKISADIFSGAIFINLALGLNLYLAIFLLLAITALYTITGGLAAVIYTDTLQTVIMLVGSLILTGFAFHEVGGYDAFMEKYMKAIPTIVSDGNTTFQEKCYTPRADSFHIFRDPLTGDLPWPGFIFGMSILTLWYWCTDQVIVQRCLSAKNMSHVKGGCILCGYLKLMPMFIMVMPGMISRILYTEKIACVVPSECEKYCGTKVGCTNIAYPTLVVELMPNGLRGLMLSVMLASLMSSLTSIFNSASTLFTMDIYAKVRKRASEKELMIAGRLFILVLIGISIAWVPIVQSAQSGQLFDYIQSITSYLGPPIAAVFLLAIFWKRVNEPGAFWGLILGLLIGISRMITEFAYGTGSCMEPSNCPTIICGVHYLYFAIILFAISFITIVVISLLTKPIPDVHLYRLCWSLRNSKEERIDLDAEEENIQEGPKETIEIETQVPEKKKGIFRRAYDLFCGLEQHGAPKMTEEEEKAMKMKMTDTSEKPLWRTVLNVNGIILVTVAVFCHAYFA
Nature of the assay: SGLT1 assay: Na-dependent 14C-AMG uptake in CHO-K1 cells stably expressing human SGLT1. It counts as cell-based. As to conditions: for SGLT1 %-inhibition / inhibition at 0.3 µM: @ 0.3 μM; for IC50: average if tested more than once. As for the experimental part:
as §1, §2, §3, §4, §5

For orientation: IC50 means the concentration needed to halve the response being measured. Read a low IC50 as higher potency. Usually inhibition stands for how much of the control response was suppressed.

`Cc1ccc([C@@H]2O[C@H](CO)[C@@H](F)[C@H](O)[C@H]2O)cc1Cc1cc2c(s1)CCN(C(=O)N1CCCC1)C2` [Compound 78] came in with an SGLT2 %-inhibition at human SGLT2 of 86.9% @ 0.3 μM. The SGLT1 %-inhibition on human SGLT1 was determined as 28.4% @ 0.3 μM.

`COc1cc(O)c([C@@H]2O[C@H](CO)[C@@H](F)[C@H](O)[C@H]2O)cc1Cc1cc2c(s1)CCN(C(C)=O)C2` [Compound 79]: the IC50 against human SGLT2 amounted to 137 nM; against human SGLT1, 126 nM.

On human SGLT2, `COC(=O)N1CCc2sc(Cc3cc([C@@H]4O[C@H](CO)[C@@H](F)[C@H](O)[C@H]4O)ccc3Cl)cc2C1` [Compound 80] had an SGLT2 %-inhibition of 60.4% @ 0.3 μM. On human SGLT1, this molecule had an SGLT1 %-inhibition of 37.4% @ 0.3 μM.

`COc1cc(C)c(Cc2cc3c(s2)CCN(C(=O)N2CCCC2)C3)cc1[C@@H]1O[C@H](CO)[C@@H](F)[C@H](O)[C@H]1O` [Compound 81]: the IC50 at human SGLT2 was 11 nM; against human SGLT1 it was 223 nM.

For `COc1cc(OC)c([C@@H]2O[C@H](CO)[C@@H](F)[C@H](O)[C@H]2O)cc1Cc1cc2c(s1)CCN(C(C)=O)C2` [Compound 82], on human SGLT2, the SGLT2 %-inhibition is recorded as 58.9% @ 0.3 μM. At human SGLT1, this molecule yielded an SGLT1 %-inhibition of 42.2% @ 0.3 μM.

As for `COC(=O)N1CCc2sc(Cc3cc([C@@H]4O[C@H](CO)[C@@H](F)[C@H](O)[C@H]4O)c(OC)cc3OC)cc2C1` [Compound 83], on human SGLT2, the SGLT2 %-inhibition is 72.3% @ 0.3 μM. The SGLT1 %-inhibition at human SGLT1 came out at 17.4% @ 0.3 μM.

For the molecule `Cc1cc(O)c([C@@H]2O[C@H](CO)[C@@H](F)[C@H](O)[C@H]2O)cc1Cc1cc2c(s1)CCN(C(=O)c1nccs1)C2` [Compound 84, (2-(5-((2S,3R,4R,5S,6R)-5-fluoro-3,4-dihydroxy-6-(hydroxymethyl)-tetrahydro-2H-pyran-2-yl)-4-hydroxy-2-methylbenzyl)-6,7-dihydrothieno[3,2-c]pyridin-5(4H)-yl)(thiazol-2-yl)methanone], the IC50 on human SGLT2 turned out to be 36 nM; at human SGLT1, 101 nM.

The molecule `CC1(C)Oc2c(Cc3ccc4c(c3)OCCO4)cc([C@@H]3O[C@H](CO)[C@@H](F)[C@H](O)[C@H]3O)cc2C1CO` (some centres unmarked) [Compound 85] gave an SGLT2 %-inhibition at human SGLT2 of 10.1% @ 0.3 μM. Besides, at human SGLT1, the SGLT1 %-inhibition is reported as 37.4% @ 0.3 μM.

With `Cc1cc(O)c([C@@H]2O[C@H](CO)[C@@H](F)[C@H](O)[C@H]2O)cc1Cc1cc2c(s1)CCN(C(=O)C1CCCC1)C2` [Compound 86, Cyclopentyl(2-(5-((2S,3R,4R,5S,6R)-5-fluoro-3,4-dihydroxy-6-(hydroxymethyl)-tetrahydro-2H-pyran-2-yl)-4-hydroxy-2-methylbenzyl)-6,7-dihydrothieno[3,2-c]pyridin-5(4H)-yl)methanone], the values for the IC50 against human SGLT2 and at human SGLT1 were 38 nM and 290 nM, respectively.

`Cc1ccc([C@@H]2O[C@H](CO)[C@@H](F)[C@H](O)[C@H]2O)cc1Cc1cc2c(s1)CCN(C(=O)C1CCCC1)C2` [Compound 87] yielded an SGLT2 %-inhibition at human SGLT2 of 59.0% @ 0.3 μM. At human SGLT1, this molecule showed an SGLT1 %-inhibition of 48.7% @ 0.3 μM.

`CC1(CO)COc2c(Cc3ccc4c(c3)OCCO4)cc([C@@H]3O[C@H](CO)[C@@H](F)[C@H](O)[C@H]3O)cc21` (some centres unmarked) [Compound 88] returned an SGLT2 %-inhibition on human SGLT2 of 44.8% @ 0.3 μM. On human SGLT1, this molecule came in with an SGLT1 %-inhibition of 42.5% @ 0.3 μM.

`OC[C@H]1O[C@@H](c2cc3c(c(Cc4ccc5c(c4)NCCC5)c2)OCC3)[C@H](O)[C@@H](O)[C@@H]1F` [Compound 89]: the IC50 on human SGLT2 worked out at 100 nM; against human SGLT1, 42 nM.

For `COc1cc(C)c(Cc2cc3c(s2)CCN(C(=O)C2CCCC2)C3)cc1[C@@H]1O[C@H](CO)[C@@H](F)[C@H](O)[C@H]1O` [Compound 91], the SGLT2 %-inhibition on human SGLT2 was determined as 65.5% @ 0.3 μM. On human SGLT1, the SGLT1 %-inhibition turned out to be 31.7% @ 0.3 μM.

`Cc1ccc([C@@H]2O[C@H](CO)[C@@H](F)[C@H](O)[C@H]2O)cc1Cc1cc2c(s1)CCN(C#N)C2` [Compound 92, 2-(5-((2S,3R,4R,5S,6R)-5-fluoro-3,4-dihydroxy-6-(hydroxymethyl)-tetrahydro-2H-pyran-2-yl)-2-methylbenzyl)-6,7-dihydrothieno[3,2-c]pyridine-5(4H)-carbonitrile]: the inhibition at 0.3 µM at human SGLT2 came to 76.2%; against human SGLT1 it was 29%.

The molecule `OCCC1COc2c(Cc3ccc4c(c3)OCCO4)cc([C@@H]3O[C@H](CO)[C@@H](F)[C@H](O)[C@H]3O)cc21` (some centres unmarked) [Compound 93] gave an SGLT2 %-inhibition on human SGLT2 of 42.3% @ 0.3 μM. In addition, at human SGLT1, the SGLT1 %-inhibition was 33.6% @ 0.3 μM.

At human SGLT2, `CN1CCCc2ccc(Cc3cc([C@@H]4O[C@H](CO)[C@@H](F)[C@H](O)[C@H]4O)cc4c3OCC4)cc21` [Compound 94] displayed an SGLT2 %-inhibition of 19.2% @ 0.3 μM. At human SGLT1, this molecule returned an SGLT1 %-inhibition of 32.6% @ 0.3 μM.

In turn, `COc1cc(Cl)c(Cc2cc3c(s2)CCN(C(=O)N2CCCC2)C3)cc1[C@@H]1O[C@H](CO)[C@@H](F)[C@H](O)[C@H]1O` [Compound 96] showed an SGLT2 %-inhibition at human SGLT2 of 18.2% @ 0.3 μM. This molecule also had an SGLT1 %-inhibition on human SGLT1 of 29.1% @ 0.3 μM.

`O=C1COc2cc(Cc3cc([C@@H]4O[C@H](CO)[C@@H](F)[C@H](O)[C@H]4O)cc4c3OCC4)ccc2N1` [Compound 97]: the SGLT2 %-inhibition on human SGLT2 came to 67.9% @ 0.3 μM. Further, on human SGLT1, the SGLT1 %-inhibition came to 31.2% @ 0.3 μM.

Regarding `OC[C@H]1O[C@@H](c2cc(Cc3ccc4c(c3)OCCO4)c(O)c3c2OCC3)[C@H](O)[C@@H](O)[C@@H]1F` [Compound 98, (2S,3R,4R,5S,6R)-2-[5-(2,3-dihydro-1,4-benzodioxin-6-ylmethyl)-4-hydroxy-2,3-dihydrobenzofuran-7-yl]-5-fluoro-6-(hydroxymethyl)tetrahydropyran-3,4-diol], the inhibition at 0.3 µM was determined as 26% against human SGLT2 and 30.9% on human SGLT1.

In turn, `COc1cc(Cl)c(Cc2cc3c(s2)CCN(C#N)C3)cc1[C@@H]1O[C@H](CO)[C@@H](F)[C@H](O)[C@H]1O` [Compound 99] registered an SGLT2 %-inhibition at human SGLT2 of 83.5% @ 0.3 μM. In addition, the SGLT1 %-inhibition at human SGLT1 was found to be 28.9% @ 0.3 μM.

On to `COc1cc(O)c([C@@H]2O[C@H](CO)[C@@H](F)[C@H](O)[C@H]2O)cc1Cc1cc2c(s1)CCN(C#N)C2` [Compound 100], for which the IC50 against human SGLT2 is 8 nM; on human SGLT1, 95 nM.

On to `COc1c(Cc2ccc3c(c2)OCCO3)cc([C@@H]2O[C@H](CO)[C@@H](F)[C@H](O)[C@H]2O)c2c1CCO2` [Compound 101, (2S,3R,4R,5S,6R)-2-[5-(2,3-dihydro-1,4-benzodioxin-6-ylmethyl)-4-methoxy-2,3-dihydrobenzofuran-7-yl]-5-fluoro-6-(hydroxymethyl)tetrahydropyran-3,4-diol], for which the results for the concentration for half-maximal inhibition (IC50) on human SGLT2 and against human SGLT1 were 7 nM and 96 nM, respectively.

Source of the values: patent US11014917B2, “5-fluoro-c-(aryl or heterocyclyl)-glycoside derivatives useful as dual SGLT1 / SGLT2 modulators” (Janssen Pharmaceutica NV, priority 2017, dated 2021).
